Measured values: article PMC4823954, “From fighting depression to conquering tumors: a novel tricyclic thiazepine compound as a tubulin polymerization inhibitor” (Cell Death & Disease, 2016)

Key:
Experiment in all cases: KINOMEscan
Format in all cases: binding
Details in all cases: read-out: % Ctrl
[1] = target: T1, PIK3CB (Homo sapiens, UniProt P42338)
T1 construct: purchased DiscoveRx KINOMEscan
Summary of the method: (§1)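 Competition binding panel of 442 non-mutant kinases: test compound at 5 and 10 μM competed with an active-site-directed ligand for 1 h with shaking. Bound kinase was eluted with 0.5 μM ligand and quantified by qPCR; %Ctrl = (compound − positive control)/(DMSO − positive control) × 100, lower meaning tighter binding.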

[2] = target: T2, MYLK2 (Homo sapiens, UniProt Q9H1R3)
T2 construct: purchased DiscoveRx KINOMEscan
Summary of the method: as §1

[3] = target: T3, PRP4 (Homo sapiens, UniProt Q13523)
T3 construct: purchased DiscoveRx KINOMEscan
T3 sequence (Q13523 whole entry): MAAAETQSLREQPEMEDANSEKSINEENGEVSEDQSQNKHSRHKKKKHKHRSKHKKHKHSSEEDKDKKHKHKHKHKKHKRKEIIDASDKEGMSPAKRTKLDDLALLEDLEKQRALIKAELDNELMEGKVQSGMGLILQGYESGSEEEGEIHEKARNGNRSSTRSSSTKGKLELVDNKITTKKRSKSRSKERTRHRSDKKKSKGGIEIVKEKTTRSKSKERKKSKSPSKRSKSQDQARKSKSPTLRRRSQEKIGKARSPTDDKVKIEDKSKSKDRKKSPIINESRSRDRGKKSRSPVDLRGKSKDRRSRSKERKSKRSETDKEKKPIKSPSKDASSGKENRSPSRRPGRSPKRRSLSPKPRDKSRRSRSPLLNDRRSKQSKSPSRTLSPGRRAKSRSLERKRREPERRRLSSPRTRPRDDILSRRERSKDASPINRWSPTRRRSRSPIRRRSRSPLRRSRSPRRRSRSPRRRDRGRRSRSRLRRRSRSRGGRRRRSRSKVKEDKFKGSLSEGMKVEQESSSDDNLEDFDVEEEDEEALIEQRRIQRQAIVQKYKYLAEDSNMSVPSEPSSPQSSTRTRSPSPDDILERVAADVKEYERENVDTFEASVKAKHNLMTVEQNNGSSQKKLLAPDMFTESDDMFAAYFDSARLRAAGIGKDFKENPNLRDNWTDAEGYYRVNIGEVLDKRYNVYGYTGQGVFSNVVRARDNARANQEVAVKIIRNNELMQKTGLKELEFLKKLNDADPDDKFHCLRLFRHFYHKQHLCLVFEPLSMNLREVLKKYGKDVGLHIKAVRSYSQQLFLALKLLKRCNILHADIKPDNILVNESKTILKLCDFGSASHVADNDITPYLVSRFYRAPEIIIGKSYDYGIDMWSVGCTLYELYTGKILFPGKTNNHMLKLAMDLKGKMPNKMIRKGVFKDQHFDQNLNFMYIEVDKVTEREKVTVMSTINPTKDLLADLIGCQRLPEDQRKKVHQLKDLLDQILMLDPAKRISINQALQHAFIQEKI
Summary of the method: as §1

[4] = target: T4, PIK3CA (Homo sapiens, UniProt P42336)
T4 construct: purchased DiscoveRx KINOMEscan
Summary of the method: as §1

[5] = target: T5, EIF2AK1 (Homo sapiens, UniProt Q9BQI3)
T5 construct: purchased DiscoveRx KINOMEscan
T5 sequence (Q9BQI3 whole entry): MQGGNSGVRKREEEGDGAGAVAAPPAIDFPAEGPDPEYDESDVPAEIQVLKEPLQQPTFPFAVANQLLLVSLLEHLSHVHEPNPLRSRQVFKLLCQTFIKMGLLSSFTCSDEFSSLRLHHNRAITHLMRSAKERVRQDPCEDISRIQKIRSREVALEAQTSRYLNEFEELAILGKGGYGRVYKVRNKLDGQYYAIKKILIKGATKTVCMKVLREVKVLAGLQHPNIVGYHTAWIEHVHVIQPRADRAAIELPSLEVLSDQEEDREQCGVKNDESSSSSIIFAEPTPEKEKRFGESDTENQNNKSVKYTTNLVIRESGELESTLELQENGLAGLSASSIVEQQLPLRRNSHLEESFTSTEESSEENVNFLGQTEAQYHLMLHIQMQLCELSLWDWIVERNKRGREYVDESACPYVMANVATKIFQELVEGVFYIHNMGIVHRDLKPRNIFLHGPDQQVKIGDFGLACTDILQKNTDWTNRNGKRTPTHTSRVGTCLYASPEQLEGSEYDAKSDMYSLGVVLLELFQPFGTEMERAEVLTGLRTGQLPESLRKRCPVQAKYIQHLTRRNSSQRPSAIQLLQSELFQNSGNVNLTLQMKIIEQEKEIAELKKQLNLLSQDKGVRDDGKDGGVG
Summary of the method: as §1

[6] = target: T6, PIK4CB (Homo sapiens, UniProt Q9UBF8)
T6 construct: purchased DiscoveRx KINOMEscan
Summary of the method: as §1

[7] = target: T7, RPS6KA5(Kin.Dom.1-N-terminal) (Homo sapiens, UniProt O75582)
T7 construct: RPS6KA5(Kin.Dom.1-N-terminal); purchased DiscoveRx KINOMEscan
T7 sequence (O75582 1-387 limits assumed): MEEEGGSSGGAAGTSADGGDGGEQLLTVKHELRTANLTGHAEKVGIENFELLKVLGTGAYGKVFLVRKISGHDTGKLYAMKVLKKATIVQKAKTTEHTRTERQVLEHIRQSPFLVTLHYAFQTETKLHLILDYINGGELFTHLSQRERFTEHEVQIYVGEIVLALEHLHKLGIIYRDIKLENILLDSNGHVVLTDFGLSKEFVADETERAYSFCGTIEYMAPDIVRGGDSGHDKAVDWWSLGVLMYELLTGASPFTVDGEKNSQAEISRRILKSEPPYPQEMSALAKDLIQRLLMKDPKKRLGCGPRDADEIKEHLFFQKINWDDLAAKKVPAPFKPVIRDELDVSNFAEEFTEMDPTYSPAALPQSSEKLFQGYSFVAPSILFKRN
Summary of the method: as §1

[8] = target: T8, PRKCD (Homo sapiens, UniProt Q05655)
T8 construct: purchased DiscoveRx KINOMEscan
T8 sequence (Q05655 whole entry): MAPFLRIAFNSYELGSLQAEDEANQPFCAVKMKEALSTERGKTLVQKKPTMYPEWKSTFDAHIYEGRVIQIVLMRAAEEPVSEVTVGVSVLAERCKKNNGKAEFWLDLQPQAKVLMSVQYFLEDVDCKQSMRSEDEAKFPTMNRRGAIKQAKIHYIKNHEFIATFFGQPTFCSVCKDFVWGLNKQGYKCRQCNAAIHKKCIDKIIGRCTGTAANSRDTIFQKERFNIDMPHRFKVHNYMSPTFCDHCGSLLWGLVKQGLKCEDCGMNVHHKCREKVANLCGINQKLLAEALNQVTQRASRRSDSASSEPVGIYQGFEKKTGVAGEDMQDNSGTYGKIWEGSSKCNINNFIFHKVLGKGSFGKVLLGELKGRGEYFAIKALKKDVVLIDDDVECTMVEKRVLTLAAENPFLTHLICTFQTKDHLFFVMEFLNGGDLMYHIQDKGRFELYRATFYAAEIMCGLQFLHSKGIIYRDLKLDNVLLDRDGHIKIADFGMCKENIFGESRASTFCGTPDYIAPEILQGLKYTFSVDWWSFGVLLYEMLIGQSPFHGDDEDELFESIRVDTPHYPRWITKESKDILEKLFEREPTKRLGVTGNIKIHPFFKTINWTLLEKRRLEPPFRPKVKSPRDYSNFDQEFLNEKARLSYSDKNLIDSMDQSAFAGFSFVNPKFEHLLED
Summary of the method: as §1

[9] = target: T9, FLT4 (Homo sapiens, UniProt P35916)
T9 construct: purchased DiscoveRx KINOMEscan
Summary of the method: as §1

[10] = target: T10, CAMK2A (Homo sapiens, UniProt Q9UQM7)
T10 construct: purchased DiscoveRx KINOMEscan
Summary of the method: as §1

[11] = target: T11, ERK8 (Homo sapiens, UniProt Q8TD08)
T11 construct: purchased DiscoveRx KINOMEscan
Summary of the method: as §1

[12] = target: T12, JNK2 (Homo sapiens, UniProt P45984)
T12 construct: purchased DiscoveRx KINOMEscan
T12 sequence (P45984 whole entry): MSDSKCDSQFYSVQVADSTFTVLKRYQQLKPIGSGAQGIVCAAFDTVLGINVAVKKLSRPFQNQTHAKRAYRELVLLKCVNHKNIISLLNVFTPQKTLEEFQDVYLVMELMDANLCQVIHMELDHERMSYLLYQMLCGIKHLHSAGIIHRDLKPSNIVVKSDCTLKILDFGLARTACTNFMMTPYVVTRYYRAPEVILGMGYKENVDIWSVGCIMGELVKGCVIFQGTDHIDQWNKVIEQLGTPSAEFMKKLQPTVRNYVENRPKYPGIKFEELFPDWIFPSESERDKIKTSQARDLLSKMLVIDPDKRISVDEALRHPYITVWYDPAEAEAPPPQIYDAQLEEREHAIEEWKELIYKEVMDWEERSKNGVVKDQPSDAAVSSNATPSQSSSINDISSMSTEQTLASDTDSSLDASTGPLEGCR
Summary of the method: as §1

[13] = target: T13, PIK3CA(C420R) (Homo sapiens, UniProt P42336, C420R)
T13 construct: purchased DiscoveRx KINOMEscan

[14] = target: T14, YSK1 (Homo sapiens, UniProt O00506)
T14 construct: purchased DiscoveRx KINOMEscan
Summary of the method: as §1

[15] = target: T15, FAK (Homo sapiens, UniProt Q05397)
T15 construct: purchased DiscoveRx KINOMEscan
Summary of the method: as §1

[16] = target: T16, PRKR (Homo sapiens, UniProt P19525)
T16 construct: purchased DiscoveRx KINOMEscan
Summary of the method: as §1

[17] = target: T17, PRKCE (Homo sapiens, UniProt Q02156)
T17 construct: purchased DiscoveRx KINOMEscan
T17 sequence (Q02156 whole entry): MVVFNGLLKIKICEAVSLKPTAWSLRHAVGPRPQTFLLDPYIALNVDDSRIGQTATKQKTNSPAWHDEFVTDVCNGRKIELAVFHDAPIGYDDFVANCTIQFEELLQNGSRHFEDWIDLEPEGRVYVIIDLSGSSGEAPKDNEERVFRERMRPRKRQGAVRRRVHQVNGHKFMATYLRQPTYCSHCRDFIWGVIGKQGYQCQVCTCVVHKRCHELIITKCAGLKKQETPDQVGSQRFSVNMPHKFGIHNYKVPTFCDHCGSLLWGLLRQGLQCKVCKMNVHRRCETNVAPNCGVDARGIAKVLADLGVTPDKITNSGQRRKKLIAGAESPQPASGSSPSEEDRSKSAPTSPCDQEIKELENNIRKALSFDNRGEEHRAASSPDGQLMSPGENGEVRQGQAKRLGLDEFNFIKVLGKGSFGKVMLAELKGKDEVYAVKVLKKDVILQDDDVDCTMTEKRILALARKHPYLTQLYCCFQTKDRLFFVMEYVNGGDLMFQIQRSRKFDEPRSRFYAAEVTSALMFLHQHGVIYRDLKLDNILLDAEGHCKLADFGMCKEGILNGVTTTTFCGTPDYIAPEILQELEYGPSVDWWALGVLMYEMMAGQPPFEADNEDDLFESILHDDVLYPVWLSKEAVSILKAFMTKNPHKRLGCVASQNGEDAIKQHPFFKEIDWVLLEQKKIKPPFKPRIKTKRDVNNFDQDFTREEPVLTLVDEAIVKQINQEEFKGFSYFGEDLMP
Summary of the method: as §1

[18] = target: T18, EPHB3 (Homo sapiens, UniProt P54753)
T18 construct: purchased DiscoveRx KINOMEscan
T18 sequence (P54753 34-998): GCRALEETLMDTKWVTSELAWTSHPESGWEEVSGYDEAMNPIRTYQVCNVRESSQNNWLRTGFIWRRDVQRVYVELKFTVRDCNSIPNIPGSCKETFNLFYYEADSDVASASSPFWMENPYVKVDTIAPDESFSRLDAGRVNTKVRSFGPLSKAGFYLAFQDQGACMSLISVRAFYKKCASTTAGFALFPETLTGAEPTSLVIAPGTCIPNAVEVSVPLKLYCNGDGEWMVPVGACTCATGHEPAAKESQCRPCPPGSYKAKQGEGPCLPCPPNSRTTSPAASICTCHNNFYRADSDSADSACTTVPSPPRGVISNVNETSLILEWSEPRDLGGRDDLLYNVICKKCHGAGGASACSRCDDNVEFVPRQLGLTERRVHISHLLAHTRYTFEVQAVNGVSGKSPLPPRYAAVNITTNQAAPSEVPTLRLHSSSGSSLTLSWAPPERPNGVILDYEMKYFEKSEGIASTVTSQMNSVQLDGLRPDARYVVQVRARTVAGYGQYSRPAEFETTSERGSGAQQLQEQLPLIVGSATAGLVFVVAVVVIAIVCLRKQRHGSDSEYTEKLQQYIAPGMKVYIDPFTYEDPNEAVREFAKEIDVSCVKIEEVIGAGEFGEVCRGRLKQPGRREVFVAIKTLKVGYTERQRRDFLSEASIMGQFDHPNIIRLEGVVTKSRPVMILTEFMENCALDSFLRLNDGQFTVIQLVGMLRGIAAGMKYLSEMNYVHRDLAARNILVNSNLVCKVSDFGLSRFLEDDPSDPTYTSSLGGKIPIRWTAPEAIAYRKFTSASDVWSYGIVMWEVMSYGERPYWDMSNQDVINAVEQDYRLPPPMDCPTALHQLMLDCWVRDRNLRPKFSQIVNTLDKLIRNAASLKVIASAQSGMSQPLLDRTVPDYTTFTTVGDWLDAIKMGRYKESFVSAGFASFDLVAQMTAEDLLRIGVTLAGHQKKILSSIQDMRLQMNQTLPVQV
Summary of the method: as §1

[19] = target: T19, CHEK2 (Homo sapiens, UniProt O96017)
T19 construct: purchased DiscoveRx KINOMEscan
Summary of the method: as §1

Cc1ccc(C2=Nc3cccnc3S(=O)(=O)c3ccccc32)cc1 [TBPT, 6-(p-tolyl)benzo[f] pyrido[2,3-b][1,4] thiazepine 11,11-dioxide]
92%: remaining binding at 5 µM ([15]; 5 μM) | remaining binding at 10 µM ([15]; 10 μM)
72%: remaining binding at 5 µM ([8]; 5 μM)
87%: remaining binding at 10 µM ([10]; 10 μM)
96%: remaining binding at 5 µM ([18]; 5 μM)
93%: remaining binding at 10 µM ([6]; 10 μM)
82%: remaining binding at 10 µM ([2]; 10 μM) | remaining binding at 10 µM ([4]; 10 μM)
36%: remaining binding at 5 µM ([1]; 5 μM)
97%: remaining binding at 5 µM ([16]; 5 μM)
90%: remaining binding at 10 µM ([16]; 10 μM)
99%: remaining binding at 5 µM ([3]; 5 μM) | remaining binding at 5 µM ([12]; 5 μM) | remaining binding at 5 µM ([14]; 5 μM)
100%: remaining binding at 10 µM ([1]; 10 μM) | remaining binding at 5 µM ([2]; 5 μM) | remaining binding at 10 µM ([3]; 10 μM) | remaining binding at 5 µM ([4]; 5 μM) | remaining binding at 5 µM ([5]; 5 μM) | remaining binding at 10 µM ([5]; 10 μM) | remaining binding at 5 µM ([6]; 5 μM) | remaining binding at 5 µM ([7]; 5 μM) | remaining binding at 10 µM ([7]; 10 μM) | remaining binding at 10 µM ([8]; 10 μM) | remaining binding at 5 µM ([9]; 5 μM) | remaining binding at 10 µM ([9]; 10 μM) | remaining binding at 5 µM ([10]; 5 μM) | remaining binding at 10 µM ([11]; 10 μM) | remaining binding at 10 µM ([12]; 10 μM) | remaining binding at 5 µM ([13]; 5 μM) | remaining binding at 10 µM ([13]; 10 μM) | remaining binding at 10 µM ([14]; 10 μM) | remaining binding at 5 µM ([17]; 5 μM) | remaining binding at 10 µM ([17]; 10 μM) | remaining binding at 10 µM ([18]; 10 μM) | remaining binding at 5 µM ([19]; 5 μM) | remaining binding at 10 µM ([19]; 10 μM)
94%: remaining binding at 5 µM ([11]; 5 μM)
